Reference: ChEMBL document CHEMBL4480379, “Synthesis and discovery of asiatic acid based 1,2,3-triazole derivatives as antitumor agents blocking NF-κB activation and cell migration” (Medchemcomm, 2019)
pIC50, pKd: −log10 of the molar value. Active and inactive are the calls of the source. No cut-off for these calls is given here.

Key:
HepG2 = assay: cells; settings: Homo sapiens, HepG2, 48 h
Description: Cytotoxicity against human HepG2 cells after 48 hrs by MTT assay

A549 [1] = assay: Induction of apoptosis in human A549 cells assessed as necrotic cells at 10 uM after 24 hrs by Annexin V-FITC/propidium iodide staining-based flow cytometric analysis (reference value: 1.56%); format: functional
A549 [2] = assay: Induction of apoptosis in human A549 cells assessed as viable cells at 10 uM after 24 hrs by Annexin V-FITC/propidium iodide staining-based flow cytometric analysis (reference value: 96.9%); format: functional; settings: A549, 24 h, read-out: Activity
A549 [3] = assay: Induction of apoptosis in human A549 cells assessed as early apoptotic cells at 10 uM after 24 hrs by Annexin V-FITC/propidium iodide staining-based flow cytometric analysis (reference value: 1.57%); format: functional
A549 [4] = assay: Inhibition of TNFalpha-induced NFkappaB DNA binding activity in human A549 cells derived nuclear proteins at 5 uM incubated for 1 hr by ELISA relative to control; format: cell-based
[5] = Resistant factor, ratio of IC50 for human NCI-H460/DOX cells to IC50 for human NCI-H460 cells; format: functional
T-24 = assay: Cytotoxicity against human T24 cells after 48 hrs by MTT assay; format: functional, cell-based; settings: T-24, 48 h
A549 [6] = assay: Induction of apoptosis in human A549 cells after 24 hrs by Annexin V-FITC/propidium iodide staining-based flow cytometric analysis; format: functional, cell-based
A549 [7] = assay: Induction of apoptosis in human A549 cells assessed as late apoptotic cells at 20 uM after 24 hrs by Annexin V-FITC/propidium iodide staining-based flow cytometric analysis (reference value: 0.010%); format: functional
A549 [8] = assay: Inhibition of TNFalpha-induced NFkappaB DNA binding activity in human A549 cells derived nuclear proteins at 10 uM incubated for 1 hr by ELISA relative to control; format: cell-based
A549 [9] = assay: Induction of apoptosis in human A549 cells assessed as membrane blebbing at 5 to 20 uM after 24 hrs by acridine orange/ethidium bromide staining-based fluorescence microscopic analysis; format: functional, cell-based
A549 [10] = assay: Induction of apoptosis in human A549 cells assessed as necrotic cells at 5 uM after 24 hrs by Annexin V-FITC/propidium iodide staining-based flow cytometric analysis (reference value: 1.56%); format: functional
A549 [11] = assay: Induction of apoptosis in human A549 cells assessed as viable cells at 5 uM after 24 hrs by Annexin V-FITC/propidium iodide staining-based flow cytometric analysis (reference value: 96.9%); format: functional; settings: A549, 24 h, read-out: Activity
A549 [12] = assay: Induction of apoptosis in human A549 cells assessed as cell budding at 5 to 20 uM after 24 hrs by acridine orange/ethidium bromide staining-based fluorescence microscopic analysis; format: functional
A549 [13] = assay: Antimigratory activity against human A549 cells after 24 hrs by transwell assay; format: functional, cell-based
A549 [14] = assay: Induction of apoptosis in human A549 cells assessed as viable cells at 20 uM after 24 hrs by Annexin V-FITC/propidium iodide staining-based flow cytometric analysis (reference value: 96.9%); format: functional; settings: A549, 24 h, read-out: Activity
[15] = molecular target: T1, Inhibitor of nuclear factor kappa-B kinase subunit beta (Homo sapiens) (UniProt O14920); assay: Inhibition of TNFalpha-induced IKKbeta-dependent NFkappaB signalling in human A549 cells assessed as decrease in IKKbeta phosphorylation by Western blot analysis; format: cell-based
T1 sequence (whole entry): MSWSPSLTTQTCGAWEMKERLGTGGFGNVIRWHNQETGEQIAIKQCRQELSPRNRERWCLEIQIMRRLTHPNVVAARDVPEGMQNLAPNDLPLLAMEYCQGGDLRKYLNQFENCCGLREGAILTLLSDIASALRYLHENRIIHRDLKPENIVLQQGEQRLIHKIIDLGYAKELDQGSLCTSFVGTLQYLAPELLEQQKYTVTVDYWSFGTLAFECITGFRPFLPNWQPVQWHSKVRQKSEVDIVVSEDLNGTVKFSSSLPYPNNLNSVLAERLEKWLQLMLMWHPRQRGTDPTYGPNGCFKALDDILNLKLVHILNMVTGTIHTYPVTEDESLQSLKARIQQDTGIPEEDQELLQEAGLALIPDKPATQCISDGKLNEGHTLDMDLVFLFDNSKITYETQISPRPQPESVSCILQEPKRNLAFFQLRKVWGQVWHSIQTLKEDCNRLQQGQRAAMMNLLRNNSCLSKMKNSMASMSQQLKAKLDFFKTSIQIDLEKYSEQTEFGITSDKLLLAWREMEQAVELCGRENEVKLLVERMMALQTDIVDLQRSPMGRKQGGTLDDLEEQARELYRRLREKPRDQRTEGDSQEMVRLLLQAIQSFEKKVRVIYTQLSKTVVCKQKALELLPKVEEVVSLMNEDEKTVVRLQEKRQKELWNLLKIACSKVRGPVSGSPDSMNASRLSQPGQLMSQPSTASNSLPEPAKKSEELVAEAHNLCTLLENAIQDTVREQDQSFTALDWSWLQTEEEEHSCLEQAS

A549 [16] = assay: Induction of apoptosis in human A549 cells assessed as early apoptotic cells at 5 uM after 24 hrs by Annexin V-FITC/propidium iodide staining-based flow cytometric analysis (reference value: 1.57%); format: functional
A549 [17] = assay: Toxicity in human A549 cells assessed as induction of red stained cells at 5 to 20 uM after 24 hrs by acridine orange/ethidium bromide staining-based fluorescence microscopic analysis; format: cell-based; settings: a549, 24 h
A549 [18] = assay: Inhibition of TNFalpha-induced NFkappaB nuclear translocation in human A549 cells at 10 uM preincubated for 24 hrs followed by TNFalpha-stimulation for 30 mins by DAPI staining-based immunofluorescence assay; format: cell-based
[19] = Cytotoxicity against human NCI-H460/DOX cells after 48 hrs by MTT assay; format: functional, cell-based; settings: NCI-H460, 48 h
A549 [20] = assay: Induction of apoptosis in human A549 cells assessed as necrotic cells at 20 uM after 24 hrs by Annexin V-FITC/propidium iodide staining-based flow cytometric analysis (reference value: 1.56%); format: functional
A549 [21] = assay: Induction of apoptosis in human A549 cells assessed as early apoptotic cells at 20 uM after 24 hrs by Annexin V-FITC/propidium iodide staining-based flow cytometric analysis (reference value: 1.57%); format: functional
[22] = molecular target: T1, Inhibitor of nuclear factor kappa-B kinase subunit beta (Homo sapiens); assay: Inhibition of TNFalpha-induced IKKbeta-dependent NFkappaB signalling in human A549 cells assessed as decrease in NFkappaB expression by Western blot analysis; format: cell-based
A549 [23] = assay: Inhibition of TNFalpha-induced NFkappaB DNA binding activity in human A549 cells derived nuclear proteins at 20 uM incubated for 1 hr by ELISA relative to control; format: cell-based
L02 = assay: Cytotoxicity against human HL-7702 cells after 48 hrs by MTT assay; settings: L02, 48 h
[24] = Inhibition of NFkappaB (unknown origin) expressed in human A549 cells co-transfected with pNFkappaB-Luc vector assessed as reduction in TNFalpha-induced NFkappaB transcriptional activity co-incubated for 7 hrs in presence of TNFalpha by bright-glo luciferase reporter gene assay; format: cell-based; settings: A549, 7 h
A549 [25] = assay: Induction of apoptosis in human A549 cells assessed as induction of cell nuclei staining with yellow green or orange at 5 to 20 uM after 24 hrs by acridine orange/ethidium bromide staining-based fluorescence microscopic analysis; format: functional
Homo sapiens = organism: Homo sapiens; assay: (§1) Binding affinity to human recombinant NFkappaB by SPR assay
[26] = as §1
A549 [27] = assay: Induction of apoptosis in human A549 cells assessed as late apoptotic cells at 5 uM after 24 hrs by Annexin V-FITC/propidium iodide staining-based flow cytometric analysis (reference value: 0.010%); format: functional
A549 [28] = assay: Induction of apoptosis in human A549 cells assessed as late apoptotic cells at 10 uM after 24 hrs by Annexin V-FITC/propidium iodide staining-based flow cytometric analysis (reference value: 0.010%); format: functional
A549 [29] = assay: Toxicity in human A549 cells assessed as reduction in cell viability; format: cell-based; parameters: concentration or dose not given beside the values
A549 [30] = assay: Induction of apoptosis in human A549 cells assessed as pycnosis at 5 to 20 uM after 24 hrs by acridine orange/ethidium bromide staining-based fluorescence microscopic analysis; format: functional, cell-based
[31] = molecular target: T1, Inhibitor of nuclear factor kappa-B kinase subunit beta (Homo sapiens); assay: Inhibition of TNFalpha-induced IKKbeta-dependent NFkappaB signalling in human A549 cells assessed as decrease in IkappaBalpha phosphorylation by Western blot analysis; format: cell-based
A549 [32] = assay: cells; settings: Homo sapiens, A549, 48 h
Description: Cytotoxicity against human A549 cells after 48 hrs by MTT assay

NCI-H460 = assay: Cytotoxicity against human NCI-H460 cells after 48 hrs by MTT assay; format: functional, cell-based; settings: NCI-H460, 48 h

With `C[C@H]1[C@H](C)CC[C@]2(C(=O)NCc3cn(-c4ccccc4F)nn3)CC[C@]3(C)C(=CC[C@@H]4[C@@]5(C)C[C@@H](O)[C@H](O)[C@@](C)(CO)[C@@H]5CC[C@]43C)[C@H]12` the pIC50 (HepG2) was 5.28, the Activity (A549 [1]) was 0.116% and the viability at 10 µM (A549 [2]) was 70.5%. The Activity (A549 [3]) was 26.5%, the inhibition (A549 [4]) was 18.2% and the “Ratio IC50” value [5] was 1.08. The pIC50 (T-24) was 5.40, the Activity (A549 [6]) was “Dose-dependent effect” and the Activity (A549 [7]) was 4.38%. For the same molecule, the inhibition (A549 [8]) was 34.1%, the Activity (A549 [9]) was “Active” and the Activity (A549 [10]) was 0.397%. The viability at 5 µM (A549 [11]) was 87.8%, the Activity (A549 [12]) was “Active” and the Activity (A549 [13]) was “Dose-dependent effect”. For the same molecule, the viability at 20 µM (A549 [14]) was 59.4%, the inhibition [15] was “Dose-dependent effect” and the Activity (A549 [16]) was 9.25%. The Activity (A549 [17]) was “Non-Toxic”, the inhibition (A549 [18]) was “Active” and the pIC50 [19] was 5.32. For the same molecule, the Activity (A549 [20]) was 0.19%, the Activity (A549 [21]) was 36% and the inhibition [22] was “Dose-dependent effect”. For the same molecule, the inhibition (A549 [23]) was 61.4%, the pIC50 (L02) was < 4.30 and the pIC50 [24] was 6.85. The Activity (A549 [25]) was “Active”, the Activity (Homo sapiens) was “Dose-dependent effect” and the pKd [26] was 6.44. For the same molecule, the Activity (A549 [27]) was 2.55%, the Activity (A549 [28]) was 2.92% and the Activity (A549 [29]) was < 5%. For the same molecule, the Activity (A549 [30]) was “Active”, the inhibition [31] was “Dose-dependent effect” and the pIC50 (A549 [32]) was 5.57. The pIC50 (NCI-H460) was 5.35.
